Test results reported in publication PMC8070745, “FEN1 Blockade for Platinum Chemo-Sensitization and Synthetic Lethality in Epithelial Ovarian Cancers” (Cancers, 2021).
pIC50: −log10 of the molar value.

What was measured:
[1] = test system: FEN1 mRNA in A2780 cells; experiment: qRT-PCR FEN1 mRNA expression, A2780; type: cell-based, human; settings: 24 h exposure to cisplatin
Procedure: (1:200, ab26343). Infrared dye-labelled secondary antibodies (Li-Cor) [IRDye 800CW Donkey Anti-Rabbit IgG and IRDye 680CW Donkey Anti-Mouse IgG] were incubated at a dilution of 1:10000 for 1 h. Membranes were scanned with a LiCor Odyssey machine (700 and 800 nm) to determine protein expression. ß-Tubulin or ß-actin was used as a loading controls for the whole cell lysates. GADPH and YYI were used as loading controls to cytoplasmic and nuclear fractions, respectively. First incubation was with FEN1 antibody and then imaged. This was followed by incubation with loading control and then imaged for analysis. Bar charts show means of optical density (O.D.) ± S.D and all data is representative of at least three independent experiments. qRT-PCR analysis of FEN1 gene expre ssion: RNA was extracted using the RNeasy Mini Kit (74104, Qiagen) and quantified using a Nanodrop 2000c (Thermo Fisher Scientific). cDNA synthesis was performed using the RT2 First Strand Kit (330404, Qiagen). Real time PCR was carried out on an Applied Biosystems […] FAST cycler.
Neutral COMET assay: 1.0x10^5 cells per well were seeded in 6 well tissue culture plates and incubated at 37°C and 5% CO2 overnight. […] Fifty comets were scored per sample using Comet Assay III/IV image analysis software (Perceptive Instruments, Bury St Edmonds, UK). […]

[2] = test system: FEN1 nuclear level in A2780cis cells; experiment: Nuclear extract western blot for FEN1, A2780cis; type: cell-based, human; settings: 5 µM cisplatin, 24 h
Procedure: Clonogenic assay: In the clonogenic assay (colony formation assays), 32 cells/cm2 were seeded in 6-well plates and left at 37°C in a 5% CO2 atmosphere. Cisplatin (5µM) and/or FEN1i (10µM) and/or Importazole (5 µM, Selleckem, S8446 ) were added at the indicated concentrations and the plates were left at 37 °C in a 5% CO 2 atmosphere for 14 days. Later, the plates were washed with PBS, fixed and stained with a crystal violet, acetic acid and methanol solution and colonies were counted.
Nuclear and cytoplasmic extract: Cells were harvest by trypsinization, washed with PBS and centrifuged at 1000×g for 5min. […] Protein level were then quantified prior to use in western blots.
BCA protein quantification: Protein quantification was done using the Pierce BCA kit assay by Thermo Fisher Scientific. […] The plate was incubated at 37°C during 30 min in the dark and the absorbance was measured by FLUOstar OPTIMA, UK/ Infinite® F50 (UK) microplate reader at 590 nm. […]
Western Blot Analysis: Cells were harvested and lysed in RIPA buffer (R0278, Sigma) with the addition of protease cocktail inhibitor (P8348, Sigma), phosphatase inhibitor cocktail 2 (P5726, Sigma) and phosphatase inhibitor cocktail 3 (P0044, Sigma) and stored at - 20°C. Protein was quantified using BCA Protein Assay kit (23225, Thermo Fisher). […]

[3] = test system: XRCC1 deficient HeLa cells; experiment: FEN1 inhibitor cytotoxicity, XRCC1 deficient HeLa; type: cell-based; settings: vs HeLa control
[4] = test system: A2780cis cells; experiment: γH2AX analysis, A2780cis; type: cell-based, human; settings: FEN1i plus cisplatin
Procedure: (§1) Graphical representation and statistical analysis of mean tail moment was performed in GraphPad Prism 6 (GraphPad, La Jolla, USA). All experiments were done in duplicate three times.
(§2) γH2AX FACS: For monitoring DNA double strand break accumulation by γH2AX FACS, 1.05×104 Cells/cm2 were seeded in 6-well plates and left overnight at 37°C in a 5% CO 2 atmosphere. Cisplatin (5µM) or FEN1i (10µM) was later added to cells and incubated for 24h and 48h at 37°C in a 5% CO2 atmosphere. Cells were collected by trypsinization, washed […]
(§3) with ice cold PBS and fixed in 70% ethanol for 1h at -20°C. After removal of the fixative solution by centrifugation, cells were stained with 2 µg/ml of phospho-Histone (γH2AX) Ser139 (16202A, Millipore, UK) to detect DSBs.
(§4) Cell cycle progression: Cells were treated with 20 µg/ml RNase A (12091021, Invitrogen) and then 10 µg/ml Propidium Iodide (P4170, Sigma Aldrich) was added to determine the cell cycle distribution. The samples were analysed on a Beckman-Coulter FC500 flow cytometer using a 488nm laser for excitation and emission data for PI collected using a 620nm bandpass filter (FL3) and a 525nm bandpass filter (FL1) for FITC-anti-phospho-Histone H2A.X. […]
(§5) Graphical representation and statistical analysis was performed in GraphPad Prism 7 (GraphPad, La Jolla, USA). […]

[5] = test system: PEO1 cells; experiment: γH2AX analysis, PEO1; type: cell-based, human; settings: FEN1i monotherapy
Procedure: as §1, §2, §3, §4, §5

[6] = test system: FEN1; parameters: method as in PMID 21062821; settings: read-out: IC50 for FEN1 inhibition; cited from earlier work

Structure (SMILES) | FEN1 mRNA expression after cisplatin [1] | nuclear level of FEN1 after cisplatin [2] | sensitivity to FEN1 inhibitor [3] | γH2AX nuclear foci [4] | γH2AX foci [5] | pIC50 [6]
N.N.[Cl][Pt][Cl] [cisplatin] | transient induction of FEN1 mRNA expression on day 1 | significantly increased |  |  |  | 
Cc1csc2c1c(=O)n(O)c(=O)n2-c1ccccc1 [PTPD, 3-hydroxy-5-methyl-1-phenylthieno [2,3 d]pyrimidine-2,4(1H,3H)-dione] |  |  | did not observe any increased sensitivity | induced nuclear γH2AX nuclear foci accumulation | increased γH2AX foci accumulation | 7.66
